In US12030896B2, “PIKfyve inhibitors” (Mayo Foundation for Medical Education and Research, priority 2018, dated 2024):
Read-outs that look alike come from different tables or passages of the source.

Experiments:
[1] = Pharmacokinetic study of Example 1 in mouse (IV, IP, PO); type: in vivo, Male C57BL/6 Mouse; conditions: male, C57BL/6, mouse, plasma; for AUC(0-inf): read-out: AUC0-inf; for Cmax: read-out: Cmax; for MRT inf: read-out: MRT0-inf; for MRT last: read-out: MRT0-last; for Tmax: read-out: Tmax; for concentration at 0.25 h: 0.250 h; for concentration at 0.5 h: 0.500 h; for C0: read-out: C0; for Vd: read-out: Vdss; for bioavailability: calculated using AUC0-inf or AUC0-last with nominal dose
Procedure: Species: Male C57BL/6 Mouse, fasted.
PK/PD testing of the compound was performed in mice, after IP, IV, or oral administration.

Solubility = type: physicochemical
Procedure: The compound has a molecular weight of 428.5. It is soluble in DMSO. In addition, solutions of at least 10 mg/ml can be prepared using a mixture of DMSO (10%), cremaphor (20%), and water (70%).

[2] = ip, 30 mg/kg, IP 30 mg/kg, mean
[3] = ip, 30 mg/kg, IP 30 mg/kg, individual mice M4-M6
[4] = iv, 5 mg/kg, IV 5 mg/kg, individual mice M1-M3
[5] = po, 30 mg/kg, PO 30 mg/kg, individual mice M7-M9
[6] = po, 30 mg/kg, PO 30 mg/kg, mean

With `Cc1ccc(Nc2nc(N/N=C/c3c[nH]c4ccccc34)nc(N3CCOCC3)n2)cc1` [Example 1, (E)-4-(2-((1H-indol-3-yl)methylene)hydrazinyl)-6-morpholino-N-(p-tolyl)-1,3,5-triazin-2-amine] the concentration at 6 h [1, 2] was 105 ng/mL, the concentration at 24 h [1, 3] was 35 ng/mL and the concentration at 24 h [1, 2] was 36.6 ng/mL. It also gave an AUC(0-t) [1, 3] of 2520 ng·h/mL, an AUC(0-inf) [1, 3] of 3060 ng·h/mL and a Cmax [1, 3] of 443 ng/mL. For the same compound, the MRT inf [1, 3] was 13 h, the MRT last [1, 3] was 7.2 h and the half-life ([1]; ip, 30 mg/kg, IP 30 mg/kg, individual mice M4-M6, read-out: T1/2 (converted)) was 10.9 h. It also gave a Tmax [1, 3] of 1 h, an AUC(0-t) [1, 2] of 2850 ng·h/mL and an AUC(0-inf) [1, 2] of 3390 ng·h/mL. For the same compound, the Cmax [1, 2] was 534 ng/mL, the MRT inf [1, 2] was 12 h and the MRT last [1, 2] was 6.91 h. The half-life ([1]; ip, 30 mg/kg, IP 30 mg/kg, mean, read-out: T1/2 (converted)) was 10.1 h, the Tmax [1, 2] was 1.33 h and the half-life ([1]; ip, 30 mg/kg, IP, single 30 mg/kg dose, read-out: half life (converted)) was 10.1 h. It also gave a concentration at 5 min [1, 4] of 1300 ng/mL, a concentration at 5 min ([1]; iv, 5 mg/kg, IV 5 mg/kg, mean) of 1630 ng/mL and a concentration at 0.25 h [1, 4] of 1140 ng/mL. The concentration at 0.25 h ([1]; iv, 5 mg/kg, IV 5 mg/kg, mean) was 1310 ng/mL, the concentration at 0.5 h [1, 4] was 832 ng/mL and the concentration at 0.5 h ([1]; iv, 5 mg/kg, IV 5 mg/kg, mean) was 1010 ng/mL. It also gave a concentration at 1 h [1, 4] of 529 ng/mL, a concentration at 1 h ([1]; iv, 5 mg/kg, IV 5 mg/kg, mean) of 599 ng/mL and a concentration at 2 h [1, 4] of 176 ng/mL. It also gave a concentration at 2 h ([1]; iv, 5 mg/kg, IV 5 mg/kg, mean) of 183 ng/mL, a concentration at 4 h [1, 4] of 17.4 ng/mL and a concentration at 4 h ([1]; iv, 5 mg/kg, IV 5 mg/kg, mean) of 16.8 ng/mL. It also gave a concentration at 6 h [1, 4] of 5.13 ng/mL, a concentration at 6 h ([1]; iv, 5 mg/kg, IV 5 mg/kg, mean) of 4.2 ng/mL and an AUC(0-t) [1, 4] of 1370 ng·h/mL. For the same compound, the clearance [1, 4] was 60.5 mL/min/kg, the AUC(0-inf) [1, 4] was 1380 ng·h/mL and the C0 [1, 4] was 1390 ng/mL. The MRT inf [1, 4] was 0.959 h, the MRT last [1, 4] was 0.936 h and the half-life ([1]; iv, 5 mg/kg, IV 5 mg/kg, individual mice M1-M3, read-out: T1/2 (converted)) was 0.71 h. It also gave a Vd [1, 4] of 3.48 L/kg, an AUC(0-t) ([1]; iv, 5 mg/kg, IV 5 mg/kg, mean) of 1580 ng·h/mL and a clearance ([1]; iv, 5 mg/kg, IV 5 mg/kg, mean) of 53.4 mL/min/kg. The AUC(0-inf) ([1]; iv, 5 mg/kg, IV 5 mg/kg, mean) was 1580 ng·h/mL, the C0 ([1]; iv, 5 mg/kg, IV 5 mg/kg, mean) was 1820 ng/mL and the MRT inf ([1]; iv, 5 mg/kg, IV 5 mg/kg, mean) was 0.899 h. The MRT last ([1]; iv, 5 mg/kg, IV 5 mg/kg, mean) was 0.882 h, the half-life ([1]; iv, 5 mg/kg, IV 5 mg/kg, mean, read-out: T1/2 (converted)) was 0.667 h and the Vd ([1]; iv, 5 mg/kg, IV 5 mg/kg, mean) was 2.9 L/kg. For the same compound, the concentration at 0.25 h [1, 5] was 52.7 ng/mL, the concentration at 0.25 h [1, 6] was 59.1 ng/mL and the concentration at 0.5 h [1, 5] was 167 ng/mL. It also gave a concentration at 0.5 h [1, 6] of 122 ng/mL, a concentration at 1 h [1, 6] of 92 ng/mL and a concentration at 2 h [1, 6] of 30.5 ng/mL. It also gave a concentration at 4 h [1, 6] of 7.49 ng/mL, a concentration at 6 h [1, 5] of 11 ng/mL and a concentration at 6 h [1, 6] of 10 ng/mL. It also gave an AUC(0-inf) [1, 5] of 312 ng·h/mL, a Cmax [1, 5] of 167 ng/mL and an MRT inf [1, 5] of 2.1 h. It also gave an MRT last [1, 5] of 1.69 h, a half-life ([1]; po, 30 mg/kg, PO 30 mg/kg, individual mice M7-M9, read-out: T1/2 (converted)) of 1.31 h and a Tmax [1, 5] of 0.5 h. For the same compound, the AUC(0-t) [1, 6] was 188 ng·h/mL, the AUC(0-inf) [1, 6] was 211 ng·h/mL and the Cmax [1, 6] was 122 ng/mL. For the same compound, the MRT inf [1, 6] was 2.4 h, the MRT last [1, 6] was 1.61 h and the half-life ([1]; po, 30 mg/kg, PO 30 mg/kg, mean, read-out: T1/2 (converted)) was 1.54 h. For the same compound, the Tmax [1, 6] was 0.5 h, the bioavailability ([1]; IP 30 mg/kg) was 35.7% and the bioavailability ([1]; PO 30 mg/kg) was 2.22%. The “solubility in DMSO” value (Solubility; DMSO) was “soluble” and the “concentration of solutions that can be prepared” value (Solubility; DMSO (10%), cremaphor (20%), and water (70%)) was “at least 10 mg/ml”.
